# From ChEMBL document CHEMBL4177730, “Rational modification of semaxanib and sunitinib for developing a tumor growth inhibitor targeting ATP binding site of tyrosine kinase” (2018)
# Active and inactive are the calls of the source. The calls are words filed in the database; no cut-off is given here.
# Tests used:
# CCRF-CEM = assay: Growth inhibition of human CCRF-CEM cells after 48 hrs by sulforhodamine B assay; format: functional
# MOLT-4 = assay: Growth inhibition of human MOLT4 cells after 48 hrs by sulforhodamine B assay; format: functional; settings: MOLT-4, 48 h
# SR [1] = assay: Growth inhibition of human SR cells after 48 hrs by sulforhodamine B assay; format: functional
# A549 = assay: Growth inhibition of human A549/ATCC cells after 48 hrs by sulforhodamine B assay; format: functional; settings: A549, 48 h
# HOP-62 = assay: Growth inhibition of human HOP62 cells after 48 hrs by sulforhodamine B assay; format: functional; settings: HOP-62, 48 h
# NCI-H226 = assay: Growth inhibition of human NCI-H226 cells after 48 hrs by sulforhodamine B assay; format: functional; settings: NCI-H226, 48 h
# NCI-H23 [2] = assay: Growth inhibition of human NCI-H23 cells after 48 hrs by sulforhodamine B assay; format: functional; settings: NCI-H23, 48 h
# COLO 205 = assay: Growth inhibition of human COLO205 cells after 48 hrs by sulforhodamine B assay; format: functional; settings: COLO 205, 48 h
# HCT-116 = assay: Growth inhibition of human HCT116 cells after 48 hrs by sulforhodamine B assay; format: functional; settings: HCT-116, 48 h
# HT-29 = assay: Growth inhibition of human HT-29 cells after 48 hrs by sulforhodamine B assay; format: functional; settings: HT-29, 48 h
# KM12 [3] = assay: Growth inhibition of human KM12 cells after 48 hrs by sulforhodamine B assay; format: functional; settings: KM12, 48 h
# SW-620 = assay: Growth inhibition of human SW620 cells after 48 hrs by sulforhodamine B assay; format: functional; settings: SW-620, 48 h
# SF-539 [4] = assay: Growth inhibition of human SF539 cells after 48 hrs by sulforhodamine B assay; format: functional; settings: SF-539, 48 h
# SNB-75 = assay: Growth inhibition of human SNB75 cells after 48 hrs by sulforhodamine B assay; format: functional; settings: SNB-75, 48 h
# LOX IMVI [5] = assay: Growth inhibition of human LOXIMVI cells after 48 hrs by sulforhodamine B assay; format: functional
# MDA-MB-435 = assay: Growth inhibition of human MDA-MB-435 cells after 48 hrs by sulforhodamine B assay; format: functional; settings: MDA-MB-435, 48 h
# SK-MEL-28 [6] = assay: Growth inhibition of human SK-MEL-28 cells after 48 hrs by sulforhodamine B assay; format: functional; settings: SK-MEL-28, 48 h
# UACC-62 [7] = assay: Growth inhibition of human UACC62 cells after 48 hrs by sulforhodamine B assay; format: functional; settings: UACC-62, 48 h
# IGROV-1 = assay: Growth inhibition of human IGROV1 cells after 48 hrs by sulforhodamine B assay; format: functional; settings: IGROV-1, 48 h
# 786-0 = assay: Growth inhibition of human 786-0 cells after 48 hrs by sulforhodamine B assay; format: functional; settings: 786-0, 48 h
# PC-3 [8] = assay: Growth inhibition of human PC3 cells after 48 hrs by sulforhodamine B assay; format: functional; settings: PC-3, 48 h
# RPMI-8226 = assay: Growth inhibition of human RPMI8226 cells at 10 uM after 48 hrs by sulforhodamine B assay; format: functional, cell-based
# SR [9] = assay: Growth inhibition of human SR cells at 10 uM after 48 hrs by sulforhodamine B assay; format: functional, cell-based
# HOP-92 = assay: Growth inhibition of human HOP92 cells at 10 uM after 48 hrs by sulforhodamine B assay; format: functional, cell-based
# NCI-H23 [10] = assay: Growth inhibition of human NCI-H23 cells at 10 uM after 48 hrs by sulforhodamine B assay; format: functional, cell-based
# NCI-H322M = assay: Growth inhibition of human NCI-H322M cells at 10 uM after 48 hrs by sulforhodamine B assay; format: functional, cell-based
# NCI-H522 = assay: Growth inhibition of human NCI-H522 cells at 10 uM after 48 hrs by sulforhodamine B assay; format: functional, cell-based
# HCC 2998 = assay: Growth inhibition of human HCC2998 cells at 10 uM after 48 hrs by sulforhodamine B assay; format: functional, cell-based
# HCT-15 = assay: Growth inhibition of human HCT15 cells at 10 uM after 48 hrs by sulforhodamine B assay; format: functional, cell-based
# KM12 [11] = assay: Growth inhibition of human KM12 cells at 10 uM after 48 hrs by sulforhodamine B assay; format: functional, cell-based
# SF-539 [12] = assay: Growth inhibition of human SF539 cells at 10 uM after 48 hrs by sulforhodamine B assay; format: functional, cell-based
# LOX IMVI [13] = assay: Growth inhibition of human LOXIMVI cells at 10 uM after 48 hrs by sulforhodamine B assay; format: functional, cell-based
# SK-MEL-28 [14] = assay: Growth inhibition of human SK-MEL-28 cells at 10 uM after 48 hrs by sulforhodamine B assay; format: functional, cell-based
# UACC-62 [15] = assay: Growth inhibition of human UACC62 cells at 10 uM after 48 hrs by sulforhodamine B assay; format: functional, cell-based
# SN12C = assay: Growth inhibition of human SN12C cells at 10 uM after 48 hrs by sulforhodamine B assay; format: functional, cell-based
# TK-10 = assay: Growth inhibition of human TK10 cells at 10 uM after 48 hrs by sulforhodamine B assay; format: functional, cell-based
# PC-3 [16] = assay: Growth inhibition of human PC3 cells at 10 uM after 48 hrs by sulforhodamine B assay; format: functional, cell-based
# DU-145 = assay: Growth inhibition of human DU145 cells at 10 uM after 48 hrs by sulforhodamine B assay; format: functional, cell-based
# MDA-MB-231 = assay: Growth inhibition of human MDA-MB-231 cells at 10 uM after 48 hrs by sulforhodamine B assay; format: functional, cell-based
# MDA-MB-468 = assay: Growth inhibition of human MDA-MB-468 cells at 10 uM after 48 hrs by sulforhodamine B assay; format: functional, cell-based
# [17] = read-out: LC50 (the source's name)
smiles,measurement,setting,value
O=C1/C(=C\c2cccn2Cc2ccccc2)c2ccccc2N1c1c(Cl)cccc1Cl,GI50,CCRF-CEM,> 100 µM
same,TGI,CCRF-CEM,> 100 µM
same,CC50,CCRF-CEM; [17],> 100 µM
same,GI50,MOLT-4,> 100 µM
same,TGI,MOLT-4,> 100 µM
same,CC50,MOLT-4; [17],> 100 µM
same,GI50,SR [1],> 100 µM
same,TGI,SR [1],> 100 µM
same,CC50,SR [1]; [17],> 100 µM
same,GI50,A549,8.31 µM
same,TGI,A549,> 100 µM
same,CC50,A549; [17],> 100 µM
same,GI50,HOP-62,> 100 µM
same,TGI,HOP-62,> 100 µM
same,CC50,HOP-62; [17],> 100 µM
same,GI50,NCI-H226,6.16 µM
same,TGI,NCI-H226,> 100 µM
same,CC50,NCI-H226; [17],> 100 µM
same,GI50,NCI-H23 [2],39.8 µM
same,TGI,NCI-H23 [2],> 100 µM
same,CC50,NCI-H23 [2]; [17],> 100 µM
same,GI50,COLO 205,1040 nM
same,TGI,COLO 205,9.33 µM
same,CC50,COLO 205; [17],> 100 µM
same,GI50,HCT-116,3.38 µM
same,TGI,HCT-116,> 100 µM
same,CC50,HCT-116; [17],> 100 µM
same,GI50,HT-29,6.45 µM
same,TGI,HT-29,> 100 µM
same,CC50,HT-29; [17],> 100 µM
same,GI50,KM12 [3],380 nM
same,TGI,KM12 [3],> 100 µM
same,CC50,KM12 [3]; [17],> 100 µM
same,GI50,SW-620,> 100 µM
same,TGI,SW-620,> 100 µM
same,CC50,SW-620; [17],> 100 µM
same,GI50,SF-539 [4],> 100 µM
same,TGI,SF-539 [4],> 100 µM
same,CC50,SF-539 [4]; [17],> 100 µM
same,GI50,SNB-75,5.24 µM
same,TGI,SNB-75,> 100 µM
same,CC50,SNB-75; [17],> 100 µM
same,GI50,LOX IMVI [5],> 100 µM
same,TGI,LOX IMVI [5],> 100 µM
same,CC50,LOX IMVI [5]; [17],> 100 µM
same,GI50,MDA-MB-435,> 100 µM
same,TGI,MDA-MB-435,> 100 µM
same,CC50,MDA-MB-435; [17],> 100 µM
same,GI50,SK-MEL-28 [6],> 100 µM
same,TGI,SK-MEL-28 [6],> 100 µM
same,CC50,SK-MEL-28 [6]; [17],> 100 µM
same,GI50,UACC-62 [7],2080 nM
same,TGI,UACC-62 [7],> 100 µM
same,CC50,UACC-62 [7]; [17],> 100 µM
same,GI50,IGROV-1,540 nM
same,TGI,IGROV-1,> 100 µM
same,CC50,IGROV-1; [17],> 100 µM
same,GI50,786-0,> 100 µM
same,TGI,786-0,> 100 µM
same,CC50,786-0; [17],> 100 µM
same,GI50,PC-3 [8],6.91 µM
same,TGI,PC-3 [8],> 100 µM
same,CC50,PC-3 [8]; [17],> 100 µM
same,growth inhibition (GI),RPMI-8226,Active
same,growth inhibition (GI),SR [9],Active
same,growth inhibition (GI),HOP-92,Active
same,growth inhibition (GI),NCI-H23 [10],Active
same,growth inhibition (GI),NCI-H322M,Active
same,growth inhibition (GI),NCI-H522,Active
same,growth inhibition (GI),HCC 2998,Active
same,growth inhibition (GI),HCT-15,Active
same,growth inhibition (GI),KM12 [11],Active
same,growth inhibition (GI),SF-539 [12],Active
same,growth inhibition (GI),LOX IMVI [13],Active
same,growth inhibition (GI),SK-MEL-28 [14],Active
same,growth inhibition (GI),UACC-62 [15],Active
same,growth inhibition (GI),SN12C,Active
same,growth inhibition (GI),TK-10,Active
same,growth inhibition (GI),PC-3 [16],Active
same,growth inhibition (GI),DU-145,Active
same,growth inhibition (GI),MDA-MB-231,Active
same,growth inhibition (GI),MDA-MB-468,Active
